Patent US5273982A, “Acetic acid derivatives” (Hoffmann-La Roche Inc., priority 1990, dated 1993)

Target: T1, fibrinogen receptor, glycoprotein IIb/IIIa (Homo sapiens, UniProt P05106+P08514)
T1 construct: obtained from Triton X-100 extracts of human blood platelets; from tissue; host or cells: human blood platelets (Triton X-100 extract)
Test: Inhibition of fibrinogen binding to immobilised fibrinogen receptor glycoprotein IIb/IIIa (ELISA)
Conditions: glycoprotein IIb/IIIa from human blood platelets, bound to microtiter plates, read-out: IC50 (concentration required to inhibit the binding of fibrinogen to the immobilised receptor by 50%)
Excerpt: The inhibition of fibrinogen […] on the fibrinogen receptor, glycoprotein IIb/IIIa, can be detected as follows:
Glycoprotein IIb/IIIa is obtained from Triton X-100 extracts of human blood platelets and purified by lectin affinity chromatography (Analytical Biochemistry 151, 1985, 169-177) and chromatography on an Arg-Gly-Asp-Ser affinity column (Science 231, 1986, 1559-62). The receptor protein thus obtained is bound to microtiter plates. The specific binding of fibrinogen to the immobilized receptor is determined with the aid of an ELISA system ("enzyme-linked immunosorbent assay"). The IC50 values below correspond to the concentration of the test substance which is required in order to inhibit the binding of fibrinogen to the immobilised receptor by 50%: […]

T1 sequence (P08514 32-887 limits assumed): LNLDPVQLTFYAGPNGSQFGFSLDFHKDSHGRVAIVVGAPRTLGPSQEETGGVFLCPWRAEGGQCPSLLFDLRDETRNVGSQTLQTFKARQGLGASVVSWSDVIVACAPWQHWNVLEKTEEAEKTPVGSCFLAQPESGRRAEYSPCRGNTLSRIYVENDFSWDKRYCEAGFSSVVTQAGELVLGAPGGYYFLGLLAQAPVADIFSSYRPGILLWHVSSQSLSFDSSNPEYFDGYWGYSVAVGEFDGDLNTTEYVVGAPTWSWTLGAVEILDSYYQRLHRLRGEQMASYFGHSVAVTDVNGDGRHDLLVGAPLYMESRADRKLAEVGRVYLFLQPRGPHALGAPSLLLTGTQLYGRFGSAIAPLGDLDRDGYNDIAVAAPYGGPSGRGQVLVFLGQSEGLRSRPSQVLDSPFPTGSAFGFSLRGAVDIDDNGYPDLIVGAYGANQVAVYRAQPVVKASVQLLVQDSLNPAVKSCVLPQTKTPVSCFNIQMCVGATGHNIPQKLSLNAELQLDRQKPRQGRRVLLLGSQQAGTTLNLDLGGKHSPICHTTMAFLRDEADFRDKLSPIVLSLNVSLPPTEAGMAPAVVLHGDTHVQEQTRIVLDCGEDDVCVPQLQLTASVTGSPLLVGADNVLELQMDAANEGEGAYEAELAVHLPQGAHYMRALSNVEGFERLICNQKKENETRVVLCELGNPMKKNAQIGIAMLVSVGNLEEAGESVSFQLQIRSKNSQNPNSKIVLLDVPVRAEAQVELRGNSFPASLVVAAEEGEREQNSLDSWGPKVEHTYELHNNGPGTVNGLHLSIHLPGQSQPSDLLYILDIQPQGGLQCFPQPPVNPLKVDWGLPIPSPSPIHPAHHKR
T1 sequence (P08514 891-1039 partner limits assumed): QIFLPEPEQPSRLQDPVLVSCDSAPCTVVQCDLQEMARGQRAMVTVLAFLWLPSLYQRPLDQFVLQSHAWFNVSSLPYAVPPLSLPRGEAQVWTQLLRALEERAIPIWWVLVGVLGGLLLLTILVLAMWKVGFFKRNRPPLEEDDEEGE
T1 sequence (P05106 27-788): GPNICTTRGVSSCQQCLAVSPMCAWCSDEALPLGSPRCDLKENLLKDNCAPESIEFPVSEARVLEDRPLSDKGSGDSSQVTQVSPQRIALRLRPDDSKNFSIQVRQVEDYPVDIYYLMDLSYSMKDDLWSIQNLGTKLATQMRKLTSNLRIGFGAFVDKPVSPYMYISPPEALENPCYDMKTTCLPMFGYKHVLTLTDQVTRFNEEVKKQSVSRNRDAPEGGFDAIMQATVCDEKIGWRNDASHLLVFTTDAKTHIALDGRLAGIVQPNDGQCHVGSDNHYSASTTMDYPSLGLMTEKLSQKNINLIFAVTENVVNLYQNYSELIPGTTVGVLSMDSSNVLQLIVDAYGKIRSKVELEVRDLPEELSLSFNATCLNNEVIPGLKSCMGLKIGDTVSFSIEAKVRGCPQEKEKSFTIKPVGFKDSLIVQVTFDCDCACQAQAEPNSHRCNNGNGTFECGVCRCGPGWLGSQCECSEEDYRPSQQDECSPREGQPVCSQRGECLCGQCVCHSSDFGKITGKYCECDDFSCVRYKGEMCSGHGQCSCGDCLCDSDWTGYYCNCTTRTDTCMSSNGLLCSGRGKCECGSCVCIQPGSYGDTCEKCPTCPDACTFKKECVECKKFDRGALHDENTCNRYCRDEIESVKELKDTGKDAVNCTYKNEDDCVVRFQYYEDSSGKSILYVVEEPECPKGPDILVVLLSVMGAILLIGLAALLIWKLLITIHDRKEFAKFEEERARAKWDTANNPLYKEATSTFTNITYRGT

IC50 | SMILES
27 nM | N=C(N)c1ccc(C(=O)N2CCCC(C(=O)NCCC(=O)O)C2)cc1 (racemic) [Example 7, rac-N-[[1-(p-amidinobenzoyl)-3-piperi-dinyl]carbonyl]-β-alanine]
22 nM | N=C(N)c1ccc(C(=O)NC(CC(=O)NCCC(=O)O)c2ccccc2)cc1 (racemic) [Example 10, N-[(DL)-N-(p-amidinobenzoyl)-3-phenyl-β-alanyl]-β-alanine]
0.3 nM | N=C(N)c1ccc(C(=O)NCCC(=O)N[C@@H](CC(=O)O)C(=O)N[C@@H](Cc2ccccc2)C(=O)O)cc1 [Example 1, N-[N-[N-(p-amidinobenzoyl)-β-alanyl]-L-α-aspartyl]-3-phenyl-L-alanine]
130 nM | N=C(N)N1CCC(C(=O)NCCC(=O)N[C@@H](CC(=O)O)C(=O)N[C@@H](Cc2ccccc2)C(=O)O)CC1 [Example 2, N-[N-[N-(1-amidino-4-piperidinylcarbonyl)-β-alanyl]-L-α-aspartyl]-3-phenyl-L-alanine]
45 nM | N=C(N)c1ccc(CC(=O)NCCC(=O)N[C@@H](CC(=O)O)C(=O)N[C@@H](Cc2ccccc2)C(=O)O)cc1 [Example 3, N-[N-[N-(p-amidinophenylacetyl)-β-alanyl]-L-α-aspartyl]-3-phenyl-L-alanine]
35 nM | N=C(N)c1ccc(NC(=O)CCCC(=O)N[C@@H](CC(=O)O)C(=O)N[C@@H](Cc2ccccc2)C(=O)O)cc1 [Example 4, N-[N-[4-(p-amidinophenylcarbamoyl)butyryl]-L-α-aspartyl]-3-phenyl-L-alanine]
10 nM | N=C(N)c1ccc(CCNC(=O)CC(=O)N[C@@H](CC(=O)O)C(=O)N[C@@H](Cc2ccccc2)C(=O)O)cc1 [Example 5, N-[N-[(p-amidinophenethylcarbamoyl)acetyl]-L-α-aspartyl]-3-phenyl-L-alanine]
10 nM | CC(C)[C@H](NC(=O)[C@H](CC(=O)O)NC(=O)CCCNC(=O)c1ccc(C(=N)N)cc1)C(=O)O [Example 6, N-[N-[4-(p-amidinobenzamido)butyryl]-L-α-aspartyl]-L-valine]
100 nM | N=C(N)c1ccc(C(=O)NCCCC(=O)NCCC(=O)O)cc1 [Example 8, N-[4-(p-amidinobenzamido)butyryl]-β-alanine]
5 nM | N=C(N)c1ccc(C(=O)NCCC(=O)NCCC(=O)O)cc1 [Example 9, N-[N-(p-amidino-benzoyl)-β-alanyl]-β-alanine]
2.5 nM | N=C(N)c1ccc(C(=O)NCCCCC(=O)N[C@@H](CC(=O)O)C(=O)N[C@@H](Cc2ccccc2)C(=O)O)cc1 [Example 11, N-[N-[5-(p-amidinobenzamido)valeryl]-L-α-aspartyl]-3-phenyl-L-alanine]
10 nM | CC(C)C[C@H](NC(=O)[C@H](CC(=O)O)NC(=O)CCNC(=O)c1ccc(C(=N)N)cc1)C(=O)OC(C)C [Example 18, N-[N-[N-(p-amidino-benzoyl)-β-alanyl]-L-α-aspartyl]-L-leucine isopropyl ester]
6.7 nM | CC(C)COC(=O)[C@H](CC(=O)O)NC(=O)CCCCNC(=O)c1ccc(C(=N)N)cc1 [Example 25, isobutyl N-[5-(p-amidinobenzamido)valeryl]-L-α-aspartate]
5 nM | CCOC(=O)[C@H](CO)NC(=O)[C@H](CC(=O)O)NC(=O)CCNC(=O)c1ccc(C(=N)N)cc1 [Example 28, N-[N-[N-(p-amidinobenzoyl)-β-alanyl]-L-α-aspartyl]-L-serine ethyl ester]
12.8 nM | N=C(N)c1ccc(C(=O)N2CC[C@@H](C(=O)N[C@@H](CC(=O)O)C(=O)N[C@@H](Cc3ccccc3)C(=O)O)C2)cc1 [Example 31, N-[N-[[(R)-1-(p-amidinobenzoyl)-3-pyrrolidinyl]carbonyl]-L-α-aspartyl]-3-phenyl-L-alanine]
3.6 nM | CC(C)[C@H](NC(=O)[C@H](CC(=O)O)NC(=O)CCNC(=O)c1ccc(C(=N)N)cc1)C(=O)O [Example 38, N-[N-[N-(p-amidinobenzoyl)-β-alanyl]-L-α-aspartyl]-L-valine]
1.2 nM | N=C(N)c1ccc(C(=O)NCCC(=O)N[C@@H](CC(=O)O)C(=O)N[C@@H](Cc2ccc(O)cc2)C(=O)O)cc1 [Example 39]
